Laboratory results from BindingDB's records for doi:10.1021/acs.biochem.6b00446 (Avanti Polar Lipids, 2016).
Where “and” joins values, the source holds several entries; their conditions need not be identical. Identical values can stand only once.

Target: T1, Fatty acid-binding protein, liver (Mus musculus, UniProt P12710)
T1 sequence (P12710 whole entry): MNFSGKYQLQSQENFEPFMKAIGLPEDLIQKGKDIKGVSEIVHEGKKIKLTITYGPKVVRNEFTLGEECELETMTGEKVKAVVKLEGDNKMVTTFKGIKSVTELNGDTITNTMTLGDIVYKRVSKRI
Test: FABP1 Fluorescent Ligand Displacement Assay
Text: Data were corrected for the following blanks/controls: protein only, fluorescent ligand only, fluorescent ligand with anincreasing amount of nonfluorescent ligand, and photobleaching.

Row | Structure (SMILES) | Ki
1 | CCCCC/C=C\C/C=C\C/C=C\C/C=C\CCCC(=O)OC(CO)CO | 61 nM
2 | CCCCC/C=C\C/C=C\C/C=C\C/C=C\CCCC(=O)Nc1ccc(O)cc1 | 29 nM
3 | C=C(C)[C@@H]1CCC(C)=C[C@H]1c1c(O)cc(CCCCC)cc1O [2-(6-Isopropenyl-3-methyl-cyclohex-2-enyl)-5-pentyl-benzene-1,3-diol (Cannabidiol)] | 167 nM
4 | CCCCCCCC/C=C\CCCCCCCC(=O)OC(CO)CO [2-Oleoylmonoglycerol (2-OG)] | 40 nM
5 | CCCCCCCCCCCCCCCC(=O)OC(CO)CO [2-Palmitoylmonoglycerol (2-PG)] | 70 nM
6 | CCCCCCC(C)(C)c1cc(O)c2c(c1)OC(C)(C)[C@@H]1CC=C(CO)C[C@@H]21 [(6aR,10aR)-3-(1,1-dimethyl-heptyl)-9-hydroxymethyl-6,6-dimethyl-6a,7,10,10a-tetrahydro-6H-benzo[c]chromen-1-ol] | 850 nM
7 | CCCCCc1cc(O)c2c(c1)OC(C)(C)[C@@H]1CCC(C)=C[C@@H]21 [(10R,10aR)-6,6,9-Trimethyl-3-pentyl-6a,7,8,10a-tetrahydro-6H-benzo[c]chromen-1-ol] | 1000 nM
8 | CCc1c(-c2ccccc2)c(-c2ccccc2)nn1-c1ccccc1-c1cccc(OCC(=O)O)c1 [((2'-(5-ETHYL-3,4-DIPHENYL-1H-PYRAZOL-1-YL)-3-BIPHENYLYL)OXY)ACETIC ACID] | 21 nM and 52 nM
9 | CCCCCCC(C)(C)c1ccc([C@@H]2C[C@H](O)CC[C@H]2CCCO)c(O)c1 [ChEMBL_75020] | 990 nM
10 | CCC=CCC=CCC=CCC=CCC=CCC=CCCC(=O)NCCO [Docosahexaenoylethanolamide (DHEA)] | 163 nM
11 | CCCCCn1cc(C(=O)c2cccc3ccccc23)c2ccccc21 [JWH-018] | 58 nM
12 | CCCCCCCC/C=C\CCCCCCCC(=O)N[C@H](CO)Cc1ccc(O)cc1 [OMDM1] | 40 nM
13 | CCCCCCCC/C=C\CCCCCCCC(=O)N[C@@H](CO)Cc1ccc(O)cc1 [OMDM2] | 40 nM
14 | CCCCCCCC/C=C\CCCCCCCC(=O)NCCO [Oleamide MEA] | 43 nM
15 | CC(=O)Nc1ccc(Nc2nc(-c3ccc(Cl)c(Cl)c3)cs2)cc1 [SCPI1] | 350 nM
16 | COc1cc([N+](=O)[O-])cc2c1NC(c1ccc(Br)cc1)=NO2 [SCPI3] | 900 nM
17 | Cc1ccc2c(c1)-c1c(ssc1=S)C(C)(C)N2C(=O)CC(C)C [SCPI4] | 33 nM
18 | Cc1c(C(=O)NN2CCCCC2)nn(-c2ccc(Cl)cc2Cl)c1-c1ccc(Cl)cc1 [SR141716] | 2000 nM
19 | CCCCCC=CCC=CCC=CCC=CCCCC(=O)Nc1ccc(O)cc1C [VDM11] | 37 nM
